Where two headings read alike, the source gives them in different places.
Tests used:
[1] = test system: HIV (H9/HTLV-IIIB stock) in C8166 cells; assay: Cell culture assay: inhibition of syncytia formation in HIV-infected C8166 cells (antiviral, anti-HIV effect); format: cell-based, HIV (HTLV-IIIB); human T4 cell line; details: read-out: EC50 (concentration causing 50% inhibition of syncytia formation)
Source text: Typical of such procedures are those described by S. Harada and N. Yamamoto, Jpn. J. Cancer Res. (Gann), 76, 432 (1985), and S. Harada et al., Science, 229, 563 (1985). An assay based on the latter procedures is described in the examples hereinafter.
In addition, Tables 1 to 8 list the results for exemplified compounds of formula 1 when assayed for antiviral (anti-HIV) effects according to the following protocol which is based on a cell culture assay previously described by Harada et al., supra. Transformed cells are used because of the rapidity with which HIV will replicate in the cells.
1. The test compound is dissolved in dimethylsulfoxide to a concentration of 5 mg/mL. The resultant solution .can be stored at 4° until use.
2. The resultant solution is diluted in RPMI 1640 (Gibco Laboratories, St. Lawrence, Mass., USA) to four times (4×) the final concentration which is to be tested. Once diluted in RPMI 1640, the solution is used in the cell culture assay within 4 h.
3. The latter solution (50 μL) is added to triplicate wells of a 96 well flat bottomed microtiter plate. RPMI (50 μL) also is added to control wells.
4. C8166 cells (5×10^4) in 50 μL of HEPES-buffered RPMI 1640 (pH=7.2), 10% heat inactivated fetal calf serum (FCS), […] gentamicin (complete media) are added to all wells.
5. Fifty times TCID50 of H9/HTLV-IIIB stock (stored in liquid nitrogen as cell culture supernatant in 50% FCS) in 100 μL of complete media is added to all wells. The infectious titer of the virus stocks is as previously determined by end point dilution on C8166 cells. The titer of stocks are stable for 6-12 months when stored at -193°.
6. Microtiter plates are then placed on level shelves of a 37°, 5% CO2 humidified incubator for 72 h.
7. Plates are then removed and centers of syncytia are counted in each well by low power phase contrast light microscopy. […] Control wells should have between 25 and 75 centers of syncytia per well.
8. Percent inhibition of syncytia formation is calculated by the formula: [formula]
The concentration of the test compound which causes a 50% inhibition of syncytia formation, i.e. the EC50, is determined by using the technique of serial dilution of the working solution at step 3 and graphically plotting the observed percent inhibition of syncytia formation against the various concentrations of the test compound.
In the following tables, assay results are listed for the exemplified compounds from the aforementioned recombinant HIV protease HPLC assay under the heading IC50 (nM) and from the cell culture assay under the heading EC50 (nM). Note that for some of the compounds listed in tables, the EC50 's have not been determined (ND).

HIV protease = biological target: T1, HIV protease (Human immunodeficiency virus type 1 group M subtype B, UniProt P04585); assay: biochemical; details: read-out: IC50 (concentration causing 50% inhibition of HIV protease)
T1 construct: an HIV-encoded enzyme known as HIV protease
Source text: The procedure is based on the capacity of the test compound to inhibit enzymatic cleavage by HIV protease of a decapeptide (the substrate) having an amino acid sequence which includes a known HIV protease cleavage site of a HIV polyprotein; see H. G. Krausslich et al., Proc. Natl. Acad. Sci. USA, 86, 807 (1989).
Anderson, S. Rakhit and C. Yoakim in the European patent application 443 560, published Aug. 28, 1991.

[2] = Human immunodeficiency virus 1, C8166 cells, H9/HTLV-IIIB, 50 times TCID50, 72 h, 37°
[3] = recombinant HIV protease, decapeptide substrate, HPLC assay

Compound	EC50 [1, 2] [µM]	IC50 (HIV protease; [3]) [µM]	IC50 (HIV protease) [µM]	EC50 ([1]; Human immunodeficiency virus 1, IIIB, C8166, 72 h) [µM]
CCC(CC)NC(=O)C[C@@H](C(=O)NC[C@@H](O)[C@H](Cc1ccccc1)NC(=O)[C@@H](NC(=O)OCc1ccccc1)C(C)C)C(C)(C)C [Entry 32]	0.063	0.003		
CCC(CC)NC(=O)C[C@@H](C(=O)NC[C@@H](O)[C@H](Cc1ccccc1)NC(=O)[C@H](CC(N)=O)NC(=O)c1cc2ccccc2cn1)C(C)(C)C [Entry 18]	0.22	0.005		
CCC(CC)NC(=O)C[C@@H](C(=O)NC[C@@H](O)[C@H](Cc1ccccc1)NC(=O)c1ccc(Cl)cc1)C(C)(C)C [Entry 65]	0.845	0.0087		
CCC(CC)NC(=O)C[C@@H](C(=O)NC[C@@H](O)[C@H](Cc1ccccc1)NC(=O)[C@H](CC(N)=O)NC(=O)c1cccc2cccnc12)C(C)(C)C [Entry 10]	0.27	0.015		
CCC(CC)NC(=O)C[C@@H](C(=O)NC[C@@H](O)[C@H](Cc1ccccc1)NC(=O)[C@H](CC#N)NC(=O)c1ccc2ccccc2n1)C(C)(C)C [Entry 37]	0.034	0.003		
CCC(CC)NC(=O)C[C@@H](C(=O)NC[C@@H](O)[C@H](Cc1ccccc1)NC(=O)c1c(Cl)ccc(Cl)c1Cl)C(C)(C)C [Entry 67]	0.36	0.006		
Cc1cccc(C)c1NC(=O)C[C@@H](C(=O)NC[C@@H](O)[C@H](Cc1ccccc1)NC(=O)OCc1ccccc1)C(C)(C)C [Entry 72]	0.36	0.003		
CCC(CC)NC(=O)C[C@@H](C(=O)NC[C@@H](O)[C@H](Cc1ccccc1)NC(=O)[C@H](CC(N)=O)NC(=O)c1ccc2ccccc2n1)C(C)(C)C [Entry 35]	0.13	0.003		
CCC(CC)NC(=O)C[C@@H](C(=O)NC[C@@H](O)[C@H](Cc1ccccc1)NC(=O)[C@H](CC(N)=O)NC(=O)c1cc2ccccc2n1C)C(C)(C)C [Entry 11]	0.66	0.014		
CCC(CC)NC(=O)C[C@@H](C(=O)NC[C@@H](O)[C@H](Cc1ccccc1)NC(=O)[C@H](CC(N)=O)NC(=O)OCc1ccccc1)C(C)(C)C [Entry 20]	0.48	0.005		
CCC(CC)NC(=O)C[C@@H](C(=O)NC[C@@H](O)[C@H](Cc1ccccc1)NC(=O)[C@H](CC(N)=O)NC(=O)CCCc1ccccc1)C(C)(C)C [Entry 21]	1.1	0.005		
CCC(CC)NC(=O)C[C@@H](C(=O)NC[C@@H](O)[C@H](Cc1ccccc1)NC(=O)[C@@H](NC(C)=O)C(C)C)C(C)(C)C [Entry 28]	0.53	0.004		
CCC(CC)NC(=O)C[C@@H](C(=O)NC[C@@H](O)[C@H](Cc1ccccc1)NC(=O)[C@@H](NC(=O)c1ccc2ccccc2n1)[C@@H](C)O)C(C)(C)C [Entry 23, N^1-(1-Ethylpropyl)-N^4 -{3(S)-{[N-(2-quinolylcarbonyl)threonyl]amino}-2(R)-hydroxy-4-phenylbutyl}-3(R)-tert-butylbutanediamide]	0.052	0.004		
CCC(CC)NC(=O)C[C@@H](C(=O)NC[C@@H](O)[C@H](Cc1ccccc1)NC(=O)[C@H](CC(N)=O)NC(=O)OCCc1ccccc1)C(C)(C)C [Entry 40]	0.57	0.004		
CCC(CC)NC(=O)CC(C(=O)NC[C@@H](O)[C@H](Cc1ccccc1)NC(=O)[C@@H](NC(=O)OCc1ccccc1)C(C)(C)C)C(C)(C)C (stereo partly shown) [Entry 53]	0.09	0.006		
CCC(CC)NC(=O)C[C@@H](C(=O)NC[C@@H](O)[C@H](Cc1ccccc1)NC(=O)[C@H](CO)NC(=O)c1ccc2ccccc2n1)C(C)(C)C [Entry 6]	0.42	0.027		

Compound	EC50 [1, 2] [µM]	IC50 (HIV protease; [3]) [µM]	IC50 (HIV protease) [µM]	EC50 ([1]; Human immunodeficiency virus 1, IIIB, C8166, 72 h) [µM]
CC(C)[C@H](NC(=O)OCc1ccccc1)C(=O)N[C@@H](Cc1ccccc1)[C@H](O)CNC(=O)C(CC(=O)NC(C)(C)C)C(C)(C)C (stereo partly shown) [Entry 51]	0.2		0.007	
CCC(CC)NC(=O)C[C@@H](C(=O)NC[C@@H](O)[C@H](Cc1ccccc1)NC(=O)[C@@H](NC(=O)c1ccc2ccccc2n1)C(C)(C)C)C(C)(C)C [Entry 27]	0.083	0.004		
CCC(CC)NC(=O)C[C@@H](C(=O)NC[C@@H](O)[C@H](Cc1ccccc1)NC(=O)[C@@H](NC(=O)COc1ccccc1)[C@@H](C)O)C(C)(C)C [Entry 41]	0.17	0.003		
CCC(CC)NC(=O)C[C@@H](C(=O)NC[C@@H](O)[C@H](Cc1ccccc1)NC(=O)[C@@H](NC(=O)c1cnc2ccccc2n1)C(C)C)C(C)(C)C [Entry 31]	0.025		0.003	
CCC(CC)NC(=O)CC(C(=O)NC[C@@H](O)[C@H](Cc1ccccc1)NC(=O)[C@H](CC(N)=O)NC(=O)OCc1ccccc1)C(C)(C)C (stereo partly shown) [Entry 49]		0.013		1.3
CCC(CC)NC(=O)C[C@@H](C(=O)NC[C@@H](O)[C@H](Cc1ccccc1)NC(=O)c1cc2ccccc2n1C)C(C)(C)C [Entry 64]	0.64	0.0089		
CCC(CC)NC(=O)C[C@@H](C(=O)NC[C@@H](O)[C@H](Cc1ccccc1)NC(=O)c1ccccc1C)C(C)(C)C [Entry 68]	0.375	0.0064		
Cc1cccc(C)c1NC(=O)C[C@@H](C(=O)NC[C@@H](O)[C@H](Cc1ccccc1)NC(=O)COc1c(C)cccc1C)C(C)(C)C [Entry 73]	0.62	0.0026		
CCC(CC)OC(=O)C[C@@H](C(=O)NC[C@@H](O)[C@H](Cc1ccccc1)NC(=O)[C@H](CC(N)=O)NC(=O)c1ccc2ccccc2n1)C(C)(C)C [Entry 59, 3(R)-tert-butyl-4-{2(R)-hydroxy-4-phenyl-3(S)-{[N-(2-quinolylcarbonyl)asparaginyl]-amino}butylamino}-4-oxobutyric acid 1-ethylpropyl ester]	0.57	0.007		
CCC(CC)NC(=O)C[C@@H](C(=O)NC[C@@H](O)[C@H](Cc1ccccc1)NC(=O)[C@H](CC(N)=O)NC(=O)c1cc(OC)c2ccccc2n1)C(C)(C)C [Entry 25]	0.164	0.004		
CCc1cccc(CC)c1NC(=O)C[C@@H](C(=O)NC[C@@H](O)[C@H](Cc1ccccc1)NC(=O)[C@@H](NC(=O)c1ccc2ccccc2n1)[C@@H](C)O)C(C)(C)C [Entry 43]	0.03	0.005		
CC(C)C(NC(=O)C[C@@H](C(=O)NC[C@@H](O)[C@H](Cc1ccccc1)NC(=O)[C@H](CC(N)=O)NC(=O)c1ccc2ccccc2n1)C(C)(C)C)C(C)C [Entry 45]	0.15	0.004		
CCC(CC)NC(=O)C[C@@H](C(=O)NC[C@@H](O)[C@H](Cc1ccccc1)NC(=O)[C@H](CC(N)=O)NC(=O)c1ccnc2ccccc12)C(C)(C)C [Entry 15]	0.45	0.009		
CCC(CC)NC(=O)C[C@@H](C(=O)NC[C@@H](O)[C@H](Cc1ccccc1)NC(=O)COc1c(C)cccc1C)C(C)(C)C [Entry 71, N^1-(1-Ethylpropyl)-N^4 -{3(S)-{{(2,6-dimethylphenoxy)acetyl}amino}-2(R)-hydroxy-4-phenylbutyl}-3(R)-tert-butylbutanediamide]	0.645	0.0035		
CCC(CC)NC(=O)C[C@@H](C(=O)NC[C@@H](O)[C@H](Cc1ccccc1)NC(=O)c1cccc(N)c1C)C(C)(C)C [Entry 69]	0.258	0.0053		
CCC(CC)NC(=O)C[C@@H](C(=O)NC[C@@H](O)[C@H](Cc1ccccc1)NC(=O)[C@H](CC(N)=O)NC(=O)C=Cc1ccccc1)C(C)(C)C [Entry 17]	1.4	0.007		

Reference: US5545640A, “Protease inhibiting succinic acid derivatives” (Bio-Mega/Boehringer Ingeleheim Research Inc., priority 1995, dated 1996)
